Data reported in patent publication US8324264B1, “Inhibitors of bacterial biofilms and related methods” (Sequoia Sciences, Inc., priority 2011, dated 2012).
In brackets after ≈: the same amount, converted by molar mass.

How the values were obtained:
[1] = system: E. coli biofilms; experiment: Biofilm growth assay (spreading biofilm on semi-solid agar), E. coli; type: cell-based; conditions: biofilm growth assay, overnight 37° C., vs negative controls, Tables 1-5; for IC85: Escherichia coli, read-out: E. coli: concentration that reduces the area of the spreading biofilm by greater than or equal to 85%
From the text: (§1) “Biofilm Growth Assay” refers to an assay performed on semi-solid agar surface where the bacteria collectively move out from an inoculation point. To those skilled in the art, the act of bacteria collectively moving out from an inoculation point on a semi-solid surface may be referred to as swarming or a spreading biofilm. (Anderson, et al Microbiology, 2003, 149, 37-46; Daniels, et al. FEMS Microbiology Reviews, 2004, 28, 261-289). The procedure to perform this assay is described in detail in the Examples. This type of surface motility by bacteria has been reported in the literature by those skilled in the art. […] These references are incorporated herein by reference in their entirety.
(§2) The biofilm growth assay was carried out to measure swarming or biofilm spreading on semi-solid agar media in round plates (for example, 100×15 mm), also referred to as Petri dishes. For E. coli, the plates contained LB medium with 0.6% agar and 0.5% glucose. P. aeruginosa plates were made with M8 agar supplemented with 0.2% glucose, 100 μM CaCl2, 1 mM MgSO4, and 0.5% Casamino acids. The agar plates of this assay consisted of 0.4% to 0.7% agar (Bacto or Noble agar), although other media may also be used as described in the literature and known to those skilled in the art. Test compounds at the desired concentration were added to the cooled, autoclaved media. Portions of the media were then poured into the plates (20 mL/plate), and the plates allowed to dry at room temperature for approximately 3 to 4 hours. Alternatively, however, plates may be dried in a laminar flow hood for approximately fifteen to twenty minutes. Overnight cultures were grown in a 37° C. shaker in LB (E. coli) or TSB (P. aeruginosa). Plates were inoculated by placing 5 μL of the appropriate overnight culture in the centers of the plates. The plates then were incubated overnight at 37° C. The area of the zone of spreading bacteria was then measured and replicates are averaged. Percent inhibition was calculated as 100×(area without compound−area with compound)/(area without compound). An active compound was considered that which reduces the area of the spreading biofilm compared to negative controls by greater than or equal to 85%. The values shown in Table 1 are the concentrations of compounds (μg/ml) tested in the biofilm growth assay that reduce the area of the spreading biofilm compared to negative controls by greater than or equal to 85% unless noted differently in Table 1. A > (“greater than” symbol) as used in Table 1 is well understood to those skilled in the art as an indication that the listed concentration was not effective at this concentration.
(§3) All of the compounds shown in Tables 2, 3, 4, and 5, below, were prepared semi-synthetically from oleanolic acid, except for Compounds 2 and 3. Compound 2 was prepared from ursolic acid. Compound 3 was prepared from hederagenin, but could also be prepared from an oleanolic acid analog with a hydroxyl at C23 or C24. These compounds were tested in the spreading biofilm assay according to the methods detailed in Example I, above. The values shown in Tables 2, 3, 4, and 5 are the concentrations of compounds tested in the biofilm growth assay that reduce the area of the spreading biofilm compared to negative controls by greater than or equal to 85%.

[2] = system: P. aeruginosa biofilms; experiment: Biofilm growth assay (spreading biofilm on semi-solid agar), P. aeruginosa; type: cell-based; conditions: biofilm growth assay, overnight 37° C., vs negative controls, Tables 1-5; for IC85: Pseudomonas aeruginosa, read-out: P. aeruginosa: concentration that reduces the area of the spreading biofilm by greater than or equal to 85%
From the text: as §1, §2, §3

Compound | E. coli: concentration that reduces the area of the spreading biofilm by greater than or equal to 85% [1] [µg/mL] | P. aeruginosa: concentration that reduces the area of the spreading biofilm by greater than or equal to 85% [2] [µg/mL] | IC85 [1] [mg/L] | IC85 [2] [mg/L]
CC1(C)CC[C@]2(C(=O)O)CC[C@]3(C)C(=C(c4coc(CN5CCCC5)c4)CC4[C@@]5(C)Cc6c(n[nH]c6N)C(C)(C)C5CC[C@]43C)C2C1 (stereo partly drawn) [Example 38, (4aS,6aS,6bR,13aR)-12-Amino-2,2,6a,6b,9,9,13a-heptamethyl-15-(5-(pyrrolidin-1-ylmethyl)furan-3-yl)-2,3,4,4a,5,6,6a,6b,7,8,8a,9,11,13,13a,13b,14,15b-octadecahydro-1H-chryseno[1,2-f]indazole-4-a-carboxylic acid] | 2 | 1 |  | 
CC1(C)CC[C@]2(C(=O)O)CC[C@]3(C)C(=C(c4coc(CN5CCNCC5)c4)CC4[C@@]5(C)Cc6c(n[nH]c6N)C(C)(C)C5CC[C@]43C)C2C1 (stereo partly drawn) [Example 39, (4aS,6aS,6bR,13aR)-12-Amino-2,2,6a,6b,9,9,13a-heptamethyl-15-(5-(piperazin-1-ylmethyl)furan-3-yl)-2,3,4,4a,5,6,6a,6b,7,8,8a,9,11,13,13a,13b,14,15b-octadecahydro-1H-chryseno[1,2-f]indazole-4-a-carboxylic acid] | 2 | 1 |  | 
CC1(C)CC[C@]2(C(=O)O)CC[C@]3(C)C(=C(c4ccsc4CN4CCOCC4)CC4[C@@]5(C)Cc6c(n[nH]c6N)C(C)(C)C5CC[C@]43C)C2C1 (stereo partly drawn) [Example 34, (4aS,6aS,6bR,13aR)-12-Amino-2,2,6a,6b,9,9,13a-heptamethyl-15-(2-(morpholinomethyl)thiophen-3-yl)-2,3,4,4a,5,6,6a,6b,7,8,8a,9,11,13,13a,13b,14,15b-octadecahydro-1H-chryseno[1,2-f]indazole-4-a-carboxylic acid] | 1 | 1 |  | 
CC1(C)CC[C@]2(C(=O)O)CC[C@]3(C)[C@H](C(=O)C=C4[C@@]5(C)C=C(C#N)C(=O)C(C)(C)[C@@H]5CC[C@]43C)[C@@H]2C1 [L] |  |  | > 16 | > 16
CC1(C)CC[C@]2(C(=O)Nc3nnc(S(N)(=O)=O)s3)CC[C@]3(C)C(=CCC4[C@@]5(C)Cc6c(n[nH]c6N)C(C)(C)C5CC[C@]43C)C2C1 (stereo partly drawn) [Compound 80, (4aS,6aS,6bR,13aR)-12-Amino-2,2,6a,6b,9,9,13a-heptamethyl-N-(5-sulfamoyl-1,3,4-thiadiazol-2-yl)-2,3,4,4a,5,6,6a,6b,7,8,8a,9,11,13,13a,13b,14,15b-octadecahydro-1H-chryseno[1,2-f]indazole-4-a-carboxamide] | 1 | 1 |  | 
CN(C)c1cccc(C2=C3C4CC(C)(C)CC[C@]4(C(=O)O)CC[C@@]3(C)[C@]3(C)CCC4C(C)(C)c5n[nH]c(N)c5C[C@]4(C)C3C2)c1 (stereo partly drawn) [Example 21, (4aS,6aS,6bR,13aR)-12-Amino-15-(3-(dimethylamino)phenyl)-2,2,6a,6b,9,9,13a-heptamethyl-2,3,4,4a,5,6,6a,6b,7,8,8a,9,11,13,13a,13b,14,15b-octadecahydro-1H-chryseno[1,2-f]indazole-4-a-carboxylic acid] | >2 | 0.5 |  | 
CC1(C)CC[C@]2(C(=O)O)CC[C@]3(C)C(=CC[C@@H]4[C@@]5(C)Cc6c(noc6N)C(C)(C)[C@@H]5CC[C@]43C)[C@@H]2C1 [K] |  |  | > 8 | > 8
C=C(C)[C@@H]1CC[C@]2(CO)CC[C@]3(C)[C@H](CC[C@@H]4[C@@]5(C)CC[C@H](O)C(C)(C)[C@@H]5CC[C@]43C)[C@@H]12 [Betulin, reference compound] |  |  | > 16 | 16 (≈ 36.1 µM)
CN1CCN(c2ccc(C3=C4C5CC(C)(C)CC[C@]5(C(=O)O)CC[C@@]4(C)[C@]4(C)CCC5C(C)(C)c6n[nH]c(N)c6C[C@]5(C)C4C3)cn2)CC1 (stereo partly drawn) [Example 56, (4aS,6aS,6bR,13aR)-12-Amino-2,2,6a,6b,9,9,13a-heptamethyl-15-(6-(4-methylpiperazin-1-yl)pyridin-3-yl)-2,3,4,4a,5,6,6a,6b,7,8,8a,9,11,13,13a,13b,14,15b-octadecahydro-1H-chryseno[1,2-f]indazole-4-a-carboxylic acid] | 2 | 1 |  | 
CC1(C)CC[C@]2(C(=O)O)CC[C@]3(C)C(=C(c4ccc(CN5CCOCC5)cc4)CC4[C@@]5(C)Cc6c(n[nH]c6N)C(C)(C)C5CC[C@]43C)C2C1 (stereo partly drawn) [Example 52, (4aS,6aS,6bR,13aR)-12-Amino-2,2,6a,6b,9,9,13a-heptamethyl-15-(4-(morpholinomethyl)phenyl)-2,3,4,4a,5,6,6a,6b,7,8,8a,9,11,13,13a,13b,14,15b-octadecahydro-1H-chryseno[1,2-f]indazole-4-a-carboxylic acid] | 2 | 1 |  | 
CNc1ccc(C2=C3[C@@H]4CC(C)(C)CC[C@]4(C(=O)O)CC[C@@]3(C)[C@]3(C)CC[C@H]4C(C)(C)c5n[nH]c(N)c5C[C@]4(C)C3C2)cn1 (stereo partly drawn) [Example 43, (4aS,6aS,6bR,8aR,13aR,15bS)-12-Amino-2,2,6a,6b,9,9,13a-heptamethyl-15-(6-(methylamino)pyridin-3-yl)-2,3,4,4a,5,6,6a,6b,7,8,8a,9,11,13,13a,13b,14,15b-octadecahydro-1H-chryseno[1,2-f]indazole-4-a-carboxylic acid] | 1 | 1 |  | 
CN1CCN(Cc2occc2C2=C3[C@@H]4CC(C)(C)CC[C@]4(C(=O)O)CC[C@@]3(C)[C@]3(C)CC[C@H]4C(C)(C)c5n[nH]c(N)c5C[C@]4(C)C3C2)CC1 (stereo partly drawn) [Example 36, (4aS,6aS,6bR,8aR,13aR,15bS)-12-Amino-2,2,6a,6b,9,9,13a-heptamethyl-15-(2-((4-methylpiperazin-1-yl)methyl)furan-3-yl)-2,3,4,4a,5,6,6a,6b,7,8,8a,9,11,13,13a,13b,14,15b-octadecahydro-1H-chryseno[1,2-f]indazole-4-a-carboxylic acid] | 2 | >1 |  | 
CN(C)c1ccc(C2=C3[C@@H]4CC(C)(C)CC[C@]4(C(=O)O)CC[C@@]3(C)[C@]3(C)CC[C@H]4C(C)(C)c5n[nH]c(N)c5C[C@]4(C)C3C2)cn1 (stereo partly drawn) [Example 44, (4aS,6aS,6bR,8aR,13aR,15bS)-12-Amino-15-(6-(dimethylamino)pyridin-3-yl)-2,2,6a,6b,9,9,13a-heptamethyl-2,3,4,4a,5,6,6a,6b,7,8,8a,9,11,13,13a,13b,14,15b-octadecahydro-1H-chryseno[1,2-f]indazole-4-a-carboxylic acid] | 2 | 0.5 |  | 
